Results published in patent US11684614B2, “Formulations of hydroxypyridonate actinide/lanthanide decorporation agents” (priority 2017, dated 2023).
Values joined by “and” are separate entries in the source; they are usually repeats but may differ in a detail not shown here. Equal values may be shown once.

Test: Repeated-treatment efficacy for removing an intravenous dose of 238Pu (excretion, tissue retention, clinical observations), female and male arms;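 on % Recovered Dose ART: abdominal tissue remainder incl GI tract reproductive organs spleen bladder and fat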
Assay type: in vivo, Swiss-Webster mice
Conditions: male animals, listed as 3,4,3-LI(1,2-HOPO); for % Recovered Dose Urine per Day, Day 3 / % Recovered Dose Urine per Day, Day 4 / % Recovered Dose Urine per Day, Day 5 / % Recovered Dose Urine per Day, Day 6 / % Recovered Dose Urine per Day, Day 7 / % Recovered Dose Urine per Day, Day 2 / % Recovered Dose Urine per Day, Day 1: Day 7 necropsy
Description: The objective of this study was to characterize the efficacy of 3,4,3-L1(1,2-HOPO) at enhancing elimination from an internal plutonium burden in female and male Swiss-Webster mice administered a soluble citrate complex of ^238Pu and treated multiple times, starting at 24 hours after the exposure. Efficacy was evaluated by comparing the tissue contents, urinary and fecal excretions of ^238Pu in treated animals versus untreated animals.
The medical countermeasure 3,4,3-L1(1,2-HOPO) was administered parenterally (ip) or orally (po) via consecutive injections or gavages (six daily or twelve twice daily) starting at 24 hours post contamination at the following four selected doses: 30 μmol/kg ip, 150 μmol/kg po, 300 μmol/kg po, and 600 μmol/kg po (equivalent to respective approximate human doses range of […], using the accepted conversion system of mouse doses into human equivalent doses—HED—based on body surface area). Oral doses also included the permeability enhancer selected during formulation development work.
• Challenge isotope: ^238Pu • Challenge dose: 25 nCi (i.e., approximately 0.8 μCi/kg) • Route of contamination: Intravenous (iv) tail-vein • Route of treatment: Intraperitoneal Injection (ip) or Oral (po) • Frequency of treatment: Multiple (once- or twice-daily for 6 days) doses, starting 24 hr postcontamination • Treatment dose calculation: Dose calculations (mg/kg or μmol/kg) for the decorporation agent were based on the individual body weight measured after contamination. • Study Duration: 11 days, in-life
c. […] Test article and control dose formulations were prepared within 1 day of dose administration, by weighing out the appropriate amount of test article, dispersing in vehicle. For ip solutions, the test article was used alone, while for oral suspensions, a mixture of test article and excipient (90:10, w:w) was used. The pH was adjusted to 7.0-7.4 for ip administration and 5.0-5.5 for oral administration with sterile NaOH. Dose formulations were prepared at room temperature and filter-sterilized. • Storage: 2-8° C.; refrigerated; protected from light. • Characterization: The concentration of each test article formulation was verified by high-performance liquid chromatography-mass spectrometry. • Test Article Handling: Test, reference, and control article formulations were handled with the use of eye protection, gloves, and a protective laboratory coat. • Correct Dose Assurance: The test article was weighed with calibrated balances. The administration of each dose formulation was properly documented, and the amount administered to each animal recorded.
e. Experimental Procedures (In-Life Evaluations and Euthanasia) • Contamination: Single administration by intravenous (iv) tail-vein injection (0.2 mL injection volume) under isoflurane anesthesia. Three standard 0.2 mL injections were performed into polyethylene bottles and pre-loaded with aliquots of concentrated nitric acid on each injection day. Six female and six male mice were culled for necropsy 1 hr post-contamination and were used as standards. A11 standards were processed and counted together with the final samples to allow verification of the contamination dose. • Dose Administration: Single administration by intraperitoneal injection (ip) or oral gavage (po) under isoflurane anesthesia. • Mortality/Morbidity: Assessed at least once daily. • Clinical Observations: Recorded once daily (4 hr post-dose on day of treatment), or more often as clinical signs warranted. […]

O=C(NCCCN(CCCCN(CCCNC(=O)c1cccc(=O)n1O)C(=O)c1cccc(=O)n1O)C(=O)c1cccc(=O)n1O)c1cccc(=O)n1O [3,4,3-L1(1,2-HOPO)]
% Recovered Dose Urine per Day, Day 3 (animal group B): 0.61% and 1.15% and 1.12% and 1.18% | % Recovered Dose Urine per Day, Day 4 (animal group B): 1.30% and 0.41% and 0.54% and 0.89% | % Recovered Dose Urine per Day, Day 5 (animal group B): 0.61% and 0.58% and 0.10% and 0.65% | % Recovered Dose Urine per Day, Day 6 (animal group B): 0.18% and 0.64% and 0.10% | % Recovered Dose Urine per Day, Day 7 (animal group B): 0.17% and 0.37% and 0.28% and 0.50% | % Recovered Dose Urine per Day, Day 2 (animal group C): 1.72% and 4.28% and 3.19% and 0.38% | % Recovered Dose Urine per Day, Day 3 (animal group C): 0.95% and 1.32% and 0.98% and 0.50% | % Recovered Dose Urine per Day, Day 4 (animal group C): 0.59% and 1.17% and 0.68% and 0.55% | % Recovered Dose Urine per Day, Day 5 (animal group C): 0.35% and 0.65% and 0.33% and 0.19% | % Recovered Dose Urine per Day, Day 6 (animal group C): 0.19% and 0.70% and 0.52% and 0.07% | % Recovered Dose Urine per Day, Day 7 (animal group C): 0.10% and 0.94% and 0.45% and 0.11% | % Recovered Dose Urine per Day, Day 1 (animal group E): 21.72% and 14.01% and 18.66% and 17.47% | % Recovered Dose Urine per Day, Day 2 (animal group E): 3.64% and 2.67% and 3.46% and 2.04% | % Recovered Dose Urine per Day, Day 3 (animal group E): 1.49% and 0.90% and 1.61% and 1.12% | % Recovered Dose Urine per Day, Day 4 (animal group E): 0.67% and 0.69% and 0.59% and 0.53% | % Recovered Dose Urine per Day, Day 5 (animal group E): 0.39% and 0.62% and 0.41% | % Recovered Dose Urine per Day, Day 6 (animal group E): 0.49% and 0.53% and 0.46% and 0.31% | % Recovered Dose Urine per Day, Day 7 (animal group E): 0.21% and 0.41% and 0.23% and 0.27% | % Recovered Dose Urine per Day, Day 1 (animal group F): 19.31% and 19.65% and 13.22% and 25.18% | % Recovered Dose Urine per Day, Day 2 (animal group F): 3.62% and 1.94% and 2.38% and 2.07% | % Recovered Dose Urine per Day, Day 3 (animal group F): 1.51% and 1.15% and 1.06% | % Recovered Dose Urine per Day, Day 4 (animal group F): 0.98% and 0.55% and 0.74% and 0.83% | % Recovered Dose Urine per Day, Day 5 (animal group F): 0.45% and 0.42% and 0.47% and 0.41% | % Recovered Dose Urine per Day, Day 6 (animal group F): 0.45% and 0.47% and 0.36% and 0.29% | % Recovered Dose Urine per Day, Day 7 (animal group F): 0.55% and 0.40% and 0.72% and 0.26% | % Recovered Dose ART (Day-7 necropsy, animal group B): 2.16% and 1.57% and 1.65% and 1.32% | % Recovered Dose Combined Body (Day-7 necropsy, animal group B): 52.05% and 37.93% and 50.13% and 45.55% | % Recovered Dose Combined Excreta (Day-7 necropsy, animal group B): 47.95% and 62.07% and 49.87% and 54.45% | % Recovered Dose Kidney (Day-7 necropsy, animal group B): 0.29% and 0.25% and 0.26% and 0.45% | % Recovered Dose SKEL (Day-7 necropsy, animal group B): 15.55% and 20.00% and 23.24% and 20.71% | % Recovered Dose SOFT (Day-7 necropsy, animal group B): 3.27% and 3.41% and 2.67% and 3.29% | % Recovered Dose Total Feces (Day-7 necropsy, animal group B): 22.40% and 40.49% and 26.02% and 32.13% | % Recovered Dose Total Urine (Day-7 necropsy, animal group B): 25.54% and 21.58% and 23.85% and 22.32% | % Recovered Dose ART (Day-7 necropsy, animal group C): 1.42% and 1.55% and 1.84% and 1.39% | % Recovered Dose Combined Body (Day-7 necropsy, animal group C): 44.39% and 38.12% and 45.21% and 38.36% | % Recovered Dose Combined Excreta (Day-7 necropsy, animal group C): 55.61% and 61.88% and 54.79% and 61.64%
